This passage reports inhibition results from patent publication US7022699B2, “Cyclohexenyl phenyl diazepines vasopressin and oxytocin receptor modulators” (Wyeth, priority 2001, dated 2006).

In the assay the target is T1, human vasopressin V1a receptor subtype (Homo sapiens, UniProt P37288).
T1 construct: host or cells: CHO cells, stably transfected (pZeoSV vector for the Thibonnier cells); membranes
T1 sequence (P37288 whole entry): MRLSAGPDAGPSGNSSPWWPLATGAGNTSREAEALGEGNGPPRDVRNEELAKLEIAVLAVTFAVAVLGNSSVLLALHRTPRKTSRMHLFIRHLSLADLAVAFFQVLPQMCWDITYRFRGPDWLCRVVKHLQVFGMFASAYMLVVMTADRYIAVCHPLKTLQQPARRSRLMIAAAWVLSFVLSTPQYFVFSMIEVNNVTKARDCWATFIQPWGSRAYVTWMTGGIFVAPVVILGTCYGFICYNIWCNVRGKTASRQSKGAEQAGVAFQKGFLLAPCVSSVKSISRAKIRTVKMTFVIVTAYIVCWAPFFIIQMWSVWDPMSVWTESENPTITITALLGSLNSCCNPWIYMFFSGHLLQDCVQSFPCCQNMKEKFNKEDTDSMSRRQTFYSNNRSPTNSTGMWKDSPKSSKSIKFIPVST
The assay is described as follows: Vasopressin binding in CHO cell membranes expressing human vasopressin V1a subtype receptors ([3H]Manning ligand). The following applies: 100 nM, values without parentheses. The text has this:
Vasopressin Binding in Chinese Hamster Ovary Cell Membranes Expressing Human Vasopressin V1a Subtype Receptors
Chinese hamster ovary cells (CHO cells) stably transfected with the human vasopressin V1a subtype receptors were either obtained from Biosignal Inc., 1744 rue Williams, Montreal, Quebec, Canada or obtained from M. Thibonnier, Case Western Reserve University School of Medicine, Cleveland, Ohio. A. Passaging and Amplification of Cells: CHO cells transfected with the human vasopressin V1a subtype receptors obtained from M. Thibonnier (pZeoSV vector) are allowed to grow to confluency (approx. >90%) in T-150 flasks under sterile conditions, in a cell culture medium of F-12 Nutrient Mixture (HAM) with L-glutamine (Gibco Cat. #11765-054) containing 15 mM HEPES (Gibco Cat. #15630-080), 1% antibiotic/antimycotic (add 5 mL 100×, Gibco Cat. #15240-062 per 500 mL F-12), 250 μg/mL Zeocin (add 1.25 mL of 100 mg/mL Invitrogen R-250-01 per 500 mL F-12) and 10% Fetal Bovine Serum (Qualified, heat inactivated, Gibco Cat. #16140-063). The medium is removed by aspiration and the cells are washed with 10 mL of Hank's Balanced Salt solution (Gibco Cat. #14175-095). The salt solution is removed by aspiration and the cells are trypsinized with 5 mL of trypsin-EDTA (0.05% trypsin, 0.53 mM EDTA-4Na, Gibco Cat. #25300-070) for 1 min. The trypsin is removed by aspiration and the cells dislodged by tapping. Cell Culture medium (eg, 30 mL for 1:30 split) is immediately added and mixed well to inactivate trypsin. 1 mL of detached cells is added to new culture flasks containing fresh cell culture medium (eg, into 25 mL per T-150 flask), and mixed gently. The cells are incubated at 37° C. in 5% CO2. The medium is changed at 3 to 4 days interval (or as appropriate). The cells grow to confluency (approx. >75%–95%) within 7–8 days. All steps are done under sterile conditions. B. Membrane Preparation: The cells are washed twice gently with Hank's Balanced Salt solution (e.g.,. use 10 mL per T-150 flask). The excess is removed and the cells are bathed for 15–30 min. in an enzyme-free Cell Dissociation Buffer (e.g. use 8 mL Hank's Based, Gibco Cat. #13150-016 per T-150 flask) until the cells are loosened. The contents are transferred to centrifuge tubes (50 mL size) kept in ice bath. All subsequent steps are done at 4° C. The tubes are centrifuged at 300×g for 15 min (1380 rpm on SORVAL, Model RT6000D, using rotor for 50 mL tubes). The supernatant is discarded and the cells suspended in homogeneizing buffer (10 mM Tris-HCl containing 0.25 M sucrose and 1 mM EDTA, pH 7.4) ensuring that the volume of the buffer is about ten times the volume of the cell pellet. The cells are pooled into a centrifuge tube (50 mL) and homogenized with Polytron at setting 6 for 10 sec. The homogenate is transferred into a Potter-Elvjehm homogenizer and homogenized with 3 strokes. The homogenate is centrifuged at 1500×g for 10 min at 4° C. (3100 rpm using SORVAL, model RT6000D, using rotor for 50 mL tubes). The pellet is discarded. The supernatant is centrifuged at 100,000×g for 60 min. at 4° C. (Beckman L8-80M ultracentrifuge; spin at 37,500 rpm with rotor type 70 Ti for 50 mL tubes; 38,000 rpm with type 80Ti for 15 mL tubes; or 35,800 rpm with rotor type 45Ti). The supernantant is discarded and the pellet suspended in 3 to 4 mL of Tris buffer (50 mM TRIS-HCl, pH 7.4). The protein content is estimated by the Bradford or Lowry method. The volume of the membrane suspension is adjusted with the membrane buffer (50 mM Tris-HCl containing 0.1% BSA and 0.1 mM PMSF) to give 3.0 mg/mL (or as appropriate) of protein. The membranes are aliquoted and stored at −70° C. C. […]
In general, inhibition refers to the drop in the measured response relative to a control, in per cent. Take `O=C1C=C(c2ccc(C(=O)N3Cc4cccn4Cc4ccccc43)cc2)CCC1` [Example 24, 3-[4-(10,11-Dihydro-5H-pyrrolo[2,1-c][1,4]benzodiazepine-10-carbonyl)-phenyl]-cyclohex-2-en-1-one]: the inhibition at 0.1 µM came to 49%.

Take `O=C(c1ccc(C2=CC(O)CCC2)cc1)N1Cc2cccn2Cc2ccccc21` (stereo not shown) [Example 25, (10,11-Dihydro-5H-pyrrolo[2,1-c][1,4]benzodiazepin-10-yl)-[4-(3-hydroxy-cyclohex-1-en-1-yl)-phenyl]-methanone]: the inhibition at 0.1 µM was found to be 76%. As to `CC1=C(c2ccc(C(=O)N3Cc4cccn4Cc4ccccc43)cc2)CCCC1=O` [Example 26, 3-[4-(10,11-Dihydro-5H-pyrrolo[2,1-c][1,4]benzodiazepine-10-carbonyl)-phenyl]-2-methyl-cyclohex-2-en-1-one], the inhibition at 0.1 µM came out at 27%. As for `CC1=C(c2ccc(C(=O)N3Cc4cccn4Cc4ccccc43)cc2)CCCC1O` (stereo not shown) [Example 27, (10,11-Dihydro-5H-pyrrolo[2,1-c][1,4]benzodiazepin-10-yl)-[4-(3-hydroxy-2-methyl-cyclohex-1-en-1-yl)-phenyl]-methanone], the inhibition at 0.1 µM was determined as 89%. On to `Cc1cc(C(=O)N2Cc3cccn3Cc3ccccc32)ccc1C1=CCCCC1C` (stereo not shown) [Example 29, (10,11-Dihydro-5H-pyrrolo[2,1-c][1,4]benzodiazepin-10-yl)-[3-methyl-4-(6-methyl-cyclohex-1-en-1-yl)-phenyl]-methanone], for which the inhibition at 0.1 µM worked out at 27%. `Cc1cc(C(=O)N2Cc3cccn3Cc3ccccc32)ccc1C1=CCCCC1(C)C` [Example 30, (10,11-Dihydro-5H-pyrrolo[2,1-c][1,4]benzodiazepin-10-yl)-[4-(6,6-dimethyl-cyclohex-1-en-1-yl)-3-methyl-phenyl]-methanone]: the inhibition at 0.1 µM is 18%. In the case of `CC1=C(c2ccc(C(=O)N3Cc4cccn4Cc4ccccc43)cc2C)C(C)CCC1` (stereo not shown) [Example 33, (10,11-Dihydro-5H-pyrrolo[2,1-c][1,4]benzodiazepin-10-yl)-[4-(2,6-dimethyl-cyclohex-1-en-1-yl)-3-methyl-phenyl]-methanone], the inhibition at 0.1 µM amounted to 6%. With `Cc1cc(C(=O)N2Cc3cccn3Cc3ccccc32)ccc1C1=CCCCC1C(C)(C)C` (stereo not shown) [Example 34, (10,11-Dihydro-5H-pyrrolo[2,1-c][1,4]benzodiazepin-10-yl)-[4-(6-tert-butyl-cyclohex-1-en-1-yl)-3-methyl-phenyl]-methanone], the inhibition at 0.1 µM is -5%. `Cc1cc(C(=O)N2Cc3cccn3Cc3ccccc32)ccc1C1=CCC2CCC1C2` (stereo not shown) [Example 35, (10,11-Dihydro-5H-pyrrolo[2,1-c][1,4]benzodiazepin-10-yl)-(4-bicyclo[3.2.1]oct-2-en-2-yl-3-methyl-phenyl)-methanone]: the inhibition at 0.1 µM amounted to 36%.

With `Cc1cc(C(=O)N2Cc3cccn3Cc3ccccc32)ccc1C1=CCC2CC1C2(C)C` (stereo not shown) [Example 36, (10,11-Dihydro-5H-pyrrolo[2,1-c][1,4]benzodiazepin-10-yl)-[4-(6,6-dimethyl-bicyclo[3.1.1]hept-2-en-2-yl)-3-methyl-phenyl]-methanone], the inhibition at 0.1 µM came out at 11%.

For the compound `Cc1cc(C(=O)N2Cc3cccn3Cc3ccccc32)ccc1C1=CC(C)(C)CC(C)(C)C1` [Example 37, (10,11-Dihydro-5H-pyrrolo[2,1-c][1,4]benzodiazepin-10-yl)-[3-methyl-4-(3,3,5,5-tetramethyl-cyclohex-1-en-1-yl)-phenyl]-methanone], the inhibition at 0.1 µM was determined as 10%.

For the compound `COc1cccc(C2=C(c3ccc(C(=O)N4Cc5cccn5Cc5ccccc54)cc3C)CCCC2)c1` [Example 38, (10,11-Dihydro-5H-pyrrolo[2,1-c][1,4]benzodiazepin-10-yl)-{4-[2-(3-methoxy-phenyl)-cyclohex-1-en-1-yl]-3-methyl-phenyl}-methanone], the inhibition at 0.1 µM came to 5%. Consider `Cc1cc(C(=O)N2Cc3cccn3Cc3ccccc32)ccc1C1=CC(=O)CCC1` [Example 39, 3-[4-(10,11-Dihydro-5H-pyrrolo[2,1-c][1,4]benzodiazepine-10-carbonyl)-2-methyl-phenyl]-cyclohex-2-en-1-one], for which the inhibition at 0.1 µM is 48%. For `Cc1cc(C(=O)N2Cc3cccn3Cc3ccccc32)ccc1C1=CC(O)CCC1` (stereo not shown) [Example 40, (10,11-Dihydro-5H-pyrrolo[2,1-c][1,4]benzodiazepin-10-yl)-[4-(3-hydroxy-cyclohex-1-en-1-yl)-3-methyl-phenyl]-methanone], the inhibition at 0.1 µM was determined as 91%.

`CO[C@@H]1CCCC(c2ccc(C(=O)N3Cc4cccn4Cc4ccccc43)cc2C)=C1C` [Example 44, 10-{4-[(3R)-3-Methoxy-2-methylcyclohex-1-en-1-yl]-3-methylbenzoyl}-10,11-dihydro-5H-pyrrolo[2,1-c][1,4]benzodiazepine]: the inhibition at 0.1 µM was 85%. On to `CC1=C(c2ccc(C(=O)N3Cc4cccn4Cc4ccccc43)cc2C)CCCC1N` (stereo not shown) [Example 45, [4-(3-Amino-2-methyl-cyclohex-1-en-1-yl)-3-methyl-phenyl]-(10,11-dihydro-5H-pyrrolo[2,1-c][1,4]benzodiazepin-10-yl)-methanone], for which the inhibition at 0.1 µM worked out at 50%.
